Source: patent publication US11111484B2, “Streptococcus bacteriophage lysins for detection and treatment of gram positive bacteria” (priority 2011, dated 2021)

Assays:
MRSA strain MW2 = test: resistance assay, exposure to incrementally increasing concentrations; type: cell-based, Staphylococcus aureus; conditions: concentration doubled daily from 1/32 to 4× MIC over 8 days
MSSA strain 8325 = test: as above; type: cell-based, Staphylococcus aureus; conditions: MSSA 8325; concentration doubled daily from 1/32 to 4× MIC over 8 days

In the case of `C/C(=C\C(=O)OCCCCCCCCC(=O)O)C[C@@H]1OC[C@H](C[C@@H]2O[C@H]2[C@@H](C)[C@H](C)O)[C@@H](O)[C@H]1O` [mupirocin, reference compound], the development of resistance (MRSA strain MW2) is reported as “developed resistance” and the development of resistance (MSSA strain 8325) is reported as “developed resistance”.
